# Measured values from patent US12138329B2, “Gel cleansing agent” (SHISEIDO HONEYCAKE INDUSTRIES CO., LTD., priority 2019, dated 2024).
# Experiment: pH of 1% aqueous solution
# Format: physicochemical
# Settings: polyoxyethylene alkyl ether carboxylate
substance,measurement,setting,value
NaOH,"pH of 1% aqueous solution, 60% neutralization",60% neutralization,about 5.7
same,"pH of 1% aqueous solution, 90% neutralization",90% neutralization,about 6.5
same,"pH of 1% aqueous solution, 100% neutralization",100% neutralization,about 7.8
